From publication PMC5554889, “Development of a Potent Inhibitor of the Plasmodium Proteasome with Reduced Mammalian Toxicity” (Journal of Medicinal Chemistry, 2017)
Blank lines part the entries; values can stand above or below the molecule they belong to.

Key:
[1] = test system: ABC16-Monster S. cerevisiae; assay: microbe, parasite or virus in culture; format: cell-based; conditions: Saccharomyces cerevisiae
HepG2 cells = assay: HepG2 cytotoxicity assay; format: cell-based, human; conditions: D-amino acid at P3; comparator not given
Dd2 parasites = assay: Artemisinin IC50 with proteasome inhibitor co-treatment, 72 h SYBR green assay; format: cell-based; conditions: Plasmodium falciparum
Experimental: Compound susceptibility was measured using the malaria SYBR green I-based fluorescence assay.[39] Asynchronous P. falciparum parasites (Dd2 strain) were cultured in standard conditions before being plated for the assays. Each compound was tested over 72 h in technical duplicates on a 12-point concentration curve prepared by 3-fold dilution from 6.7 μM to 0.11 nM. At least three independent experiments were carried out for IC50 determination. Artemisinin and chloroquine were used as controls. IC50 values were obtained using normalized fluorescence intensity from SYBR green I and analyzed via nonlinear variable slope four-parameter regression curve-fitting model in Prism 6 (GraphPad Software Inc.).

Structure (SMILES): CCCCCC(=O)N[C@H](C(=O)N[C@@H](CCS(C)(=O)=O)C(=O)N[C@@H](CC(C)C)C(=O)[C@@]1(C)CO1)C(C)C [Carmaphycin B, carmaphycin B]
IC50 ([1]; GM (parental ABC16-Monster strain), n=4): 24.3 µM
IC50 ([1]; resistant Lineage 1): > 150 µM
IC50 ([1]; resistant Lineage 2, n=4): 52.7 µM
IC50 ([1]; resistant Lineage 3): > 100 µM

Structure (SMILES): CCCCCC(=O)N[C@H](Cc1c[nH]c2ccccc12)C(=O)N[C@@H](CCCC)C(=O)N[C@@H](CC(C)C)C(=O)[C@@]1(C)CO1 [analog 19]
fold reduced toxicity (HepG2 cells): up to 100 fold

IC50 (Dd2 parasites; DD2, Art + 0.5 nM Analog 18, n = 2): 0.011 µM
IC50 (Dd2 parasites; DD2, Art + 0.5 nM CarB, n = 2): 0.0135 µM
IC50 (Dd2 parasites; DD2, Art + 1.0 nM Analog 18, n = 2): 0.0075 µM
IC50 (Dd2 parasites; DD2, Art + 1.0 nM CarB, n = 2): 0.007 µM
IC50 (Dd2 parasites; DD2, Art only, Figure 3B, mean ± SEM, n = 2): 0.0235 µM
IC50 (Dd2 parasites; DD2, Art only, Figure 3C, mean ± SEM, n = 2): 0.019 µM
IC50 (Dd2 parasites; DD2, artemisinin alone, wild-type artemisinin-sensitive Dd2 parasites, span of both experiments): 0.019 to 0.0235 µM
Structure (SMILES): C[C@@H]1CC[C@H]2[C@@H](C)C(=O)O[C@@H]3O[C@@]4(C)CC[C@@H]1[C@]32OO4 [artemisinin]
